Data from ChEMBL document CHEMBL1132484, “New alpha-substituted succinate-based hydroxamic acids as TNFalpha convertase inhibitors” (J Med Chem, 1999).

Key:
[1] = target: T1, Disintegrin and metalloproteinase domain-containing protein 17 (Homo sapiens, UniProt P78536); experiment: Inhibitory activity against Tumor necrosis factor alpha-converting enzyme (TACE) in blood.; type: tissue-based
[2] = target: T1, Disintegrin and metalloproteinase domain-containing protein 17; experiment: Inhibition of TNF(tumor necrosis factor) in human blood; type: functional
Interstitial collagenase = target: T2, Interstitial collagenase (Homo sapiens, UniProt P03956); experiment: Inhibitory activity against MMP-1 (Matrix metalloprotease-1)
T2 sequence (P03956 whole entry): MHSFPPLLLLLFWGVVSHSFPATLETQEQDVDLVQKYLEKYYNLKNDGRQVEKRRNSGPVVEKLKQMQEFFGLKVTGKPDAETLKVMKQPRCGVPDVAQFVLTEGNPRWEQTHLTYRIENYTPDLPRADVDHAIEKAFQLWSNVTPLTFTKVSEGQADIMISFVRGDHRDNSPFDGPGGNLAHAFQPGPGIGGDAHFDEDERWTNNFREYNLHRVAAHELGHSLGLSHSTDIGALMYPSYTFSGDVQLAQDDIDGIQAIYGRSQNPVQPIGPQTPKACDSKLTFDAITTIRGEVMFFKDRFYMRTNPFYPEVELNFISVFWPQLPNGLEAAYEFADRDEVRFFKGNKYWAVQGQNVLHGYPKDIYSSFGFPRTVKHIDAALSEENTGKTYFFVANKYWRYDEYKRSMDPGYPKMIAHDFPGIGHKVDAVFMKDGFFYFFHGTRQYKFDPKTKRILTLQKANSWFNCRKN

T1 sequence (P78536 whole entry, the tested form may be a part): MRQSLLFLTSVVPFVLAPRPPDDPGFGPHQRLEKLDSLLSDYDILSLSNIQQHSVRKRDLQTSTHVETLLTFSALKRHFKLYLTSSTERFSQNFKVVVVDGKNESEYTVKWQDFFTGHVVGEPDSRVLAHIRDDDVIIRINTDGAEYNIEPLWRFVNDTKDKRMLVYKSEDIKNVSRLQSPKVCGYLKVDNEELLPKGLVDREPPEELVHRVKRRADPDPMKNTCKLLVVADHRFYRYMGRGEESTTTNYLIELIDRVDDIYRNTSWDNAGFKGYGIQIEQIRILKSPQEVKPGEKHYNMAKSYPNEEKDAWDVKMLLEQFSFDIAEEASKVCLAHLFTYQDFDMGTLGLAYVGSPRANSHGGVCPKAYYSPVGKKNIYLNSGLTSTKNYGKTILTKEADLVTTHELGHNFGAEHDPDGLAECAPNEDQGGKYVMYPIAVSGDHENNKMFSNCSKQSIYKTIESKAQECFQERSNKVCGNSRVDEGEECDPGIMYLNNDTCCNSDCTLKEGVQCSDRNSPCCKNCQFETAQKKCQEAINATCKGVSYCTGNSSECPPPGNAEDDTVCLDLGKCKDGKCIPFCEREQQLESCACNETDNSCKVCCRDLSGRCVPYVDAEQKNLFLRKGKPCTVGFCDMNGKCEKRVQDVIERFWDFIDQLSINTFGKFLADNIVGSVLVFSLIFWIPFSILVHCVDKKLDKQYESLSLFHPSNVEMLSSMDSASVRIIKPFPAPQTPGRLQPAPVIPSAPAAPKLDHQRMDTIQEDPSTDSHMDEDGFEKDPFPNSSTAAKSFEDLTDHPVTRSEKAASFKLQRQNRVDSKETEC

| SMILES | IC50 [1] | IC50 [2] | IC50 (Interstitial collagenase) |
| --- | --- | --- | --- |
| CNC(=O)[C@@H](NC(=O)[C@H](CC(C)C)[C@H](SC)C(=O)NO)C(C)(C)C | 1.6 nM | 2300 nM |  |
| CNC(=O)[C@@H](NC(=O)[C@H](CC(C)C)[C@H](NS(=O)(=O)c1cccc2c(=O)[nH]cnc12)C(=O)NO)C(C)(C)C | 3.4 nM | 4900 nM |  |
| CNC(=O)[C@@H](NC(=O)C(CC(C)C)C(C(=O)NO)N(Cc1ccccc1)S(=O)(=O)c1cccc2cccnc12)C(C)(C)C (single isomer, unassigned) | 85 nM |  |  |
| CNC(=O)[C@@H](NC(=O)[C@H](CC(C)C)[C@H](NS(=O)(=O)CCc1ccncc1)C(=O)NO)C(C)(C)C | 1.3 nM | 700 nM |  |
| CNC(=O)[C@@H](NC(=O)[C@H](CC(C)C)[C@H](Sc1ccc(F)cc1Cl)C(=O)NO)C(C)(C)C | 1.1 nM | 11000 nM |  |
| CNC(=O)[C@@H](NC(=O)C(CC(C)C)C(NS(=O)(=O)c1ccc(NC(C)=O)cc1)C(=O)NO)C(C)(C)C (single isomer, unassigned) | 1.3 nM | 1200 nM |  |
| CNC(=O)[C@@H](NC(=O)[C@H](CC(C)C)[C@@H](Sc1ccccc1)C(=O)NO)C(C)(C)C | 1 nM |  |  |
| CNC(=O)[C@@H](NC(=O)[C@H](CC(C)C)[C@H](OCc1cccc2ccccc12)C(=O)NO)C(C)(C)C | 0.33 nM | 7600 nM |  |
| CNC(=O)[C@@H](NC(=O)[C@H](CC(C)C)[C@H](SCc1cccc2cccnc12)C(=O)NO)C(C)(C)C | 0.8 nM | 6200 nM | 2.8 nM |
| CNC(=O)[C@@H](NC(=O)[C@H](CC(C)C)[C@H](OC)C(=O)NO)C(C)(C)C | 1.5 nM | 5000 nM |  |
| CNC(=O)[C@@H](NC(=O)[C@H](CC(C)C)[C@H](NC(=O)c1ccc2ccccc2c1)C(=O)NO)C(C)(C)C | 3.3 nM | > 20000 nM |  |
| CNC(=O)[C@@H](NC(=O)[C@H](CC(C)C)[C@H](NS(=O)(=O)c1cccc2cnccc12)C(=O)NO)C(C)(C)C | 3.1 nM | 1100 nM | 2.6 nM |
| CNC(=O)[C@@H](NC(=O)[C@H](CC(C)C)[C@H](NS(=O)(=O)c1ccc2ccccc2c1)C(=O)NO)C(C)(C)C | 0.66 nM | 1200 nM |  |
| CNC(=O)[C@@H](NC(=O)[C@H](CC(C)C)[C@H](NS(=O)(=O)c1ccc(C(=O)O)cc1)C(=O)NO)C(C)(C)C | 3.2 nM | 4400 nM |  |
| CNC(=O)[C@@H](NC(=O)[C@H](CCCOCc1ccccc1)[C@H](OCc1ccc2nc(C)nc(O)c2c1)C(=O)NO)C(C)(C)C | 12 nM |  | 330 nM |
| CNC(=O)[C@@H](NC(=O)[C@H](CC(C)C)[C@H](Sc1cccc(C(C)(C)C#N)c1)C(=O)NO)C(C)(C)C | 1.6 nM | 2800 nM |  |
| CNC(=O)[C@@H](NC(=O)C(CC(C)C)C(NCc1ccccc1)C(=O)NO)C(C)(C)C (single isomer, unassigned) | 2.8 nM | 6100 nM |  |
| CNC(=O)[C@@H](NC(=O)[C@H](CC(C)C)[C@H](NS(=O)(=O)c1c(C(C)C)cc(C(C)C)cc1C(C)C)C(=O)NO)C(C)(C)C | 13 nM |  |  |
| CNC(=O)[C@@H](NC(=O)[C@H](CC(C)C)[C@H](NC(=O)c1ccc2ncccc2c1)C(=O)NO)C(C)(C)C | 9.5 nM |  |  |
| CNC(=O)[C@@H](NC(=O)[C@H](CC(C)C)[C@H](OCc1ccc2c(ccc(=O)n2C)c1)C(=O)NO)C(C)(C)C | 1 nM | 1440 nM | 0.88 nM |

| SMILES | IC50 [1] | IC50 [2] | IC50 (Interstitial collagenase) |
| --- | --- | --- | --- |
| CNC(=O)[C@@H](NC(=O)[C@H](CC(C)C)[C@H](Sc1ccc(S(C)(=O)=O)cc1)C(=O)NO)C(C)(C)C | 1.25 nM | 2100 nM |  |
| CNC(=O)[C@@H](NC(=O)C(CC(C)C)C(NS(=O)(=O)c1ccccc1)C(=O)NO)C(C)(C)C (single isomer, unassigned) | 1.5 nM | 1300 nM |  |
| CNC(=O)[C@@H](NC(=O)[C@H](CC(C)C)[C@H](OCCc1ccc2sc(C)nc2c1)C(=O)NO)C(C)(C)C | 0.21 nM | 3500 nM |  |
| CNC(=O)[C@@H](NC(=O)[C@H](CC(C)C)[C@H](NS(=O)(=O)c1cccnc1)C(=O)NO)C(C)(C)C | 2.1 nM | 3800 nM |  |
| CNC(=O)[C@@H](NC(=O)[C@H](CC(C)C)[C@@H](C(=O)NO)N1CCCC1)C(C)(C)C | 2.8 nM | 6100 nM |  |
| CNC(=O)[C@@H](NC(=O)[C@H](CC(C)C)[C@H](Sc1ccc2c(c1)CCC(=O)N2C)C(=O)NO)C(C)(C)C | 1.4 nM | 6600 nM |  |
| CNC(=O)[C@@H](NC(=O)[C@H](CC(C)C)[C@H](NC(=O)c1cccnc1)C(=O)NO)C(C)(C)C | 22 nM |  |  |
| CNC(=O)[C@@H](NC(=O)C(CC(C)C)C(NC(C)=O)C(=O)NO)C(C)(C)C (single isomer, unassigned) | 13 nM |  |  |
| CNC(=O)[C@@H](NC(=O)C(CC(C)C)C(NS(=O)(=O)c1ccc(F)cc1Cl)C(=O)NO)C(C)(C)C (single isomer, unassigned) | 9.7 nM |  |  |
| CNC(=O)[C@@H](NC(=O)[C@H](CC(C)C)[C@H](Sc1cc(Cl)cc(Cl)c1)C(=O)NO)C(C)(C)C | 0.42 nM | 4900 nM |  |
| CNC(=O)[C@@H](NC(=O)C(CC(C)C)C(NS(=O)(=O)c1cc(Cl)cc(Cl)c1)C(=O)NO)C(C)(C)C (single isomer, unassigned) | 1 nM | 11300 nM |  |
| CNC(=O)[C@@H](NC(=O)C(CC(C)C)C(NS(=O)(=O)c1ccccc1C#N)C(=O)NO)C(C)(C)C (single isomer, unassigned) | 17 nM |  |  |
| CNC(=O)[C@@H](NC(=O)C(CC(C)C)C(NS(=O)(=O)c1cnc[nH]1)C(=O)NO)C(C)(C)C (single isomer, unassigned) | 9 nM |  |  |
| CNC(=O)[C@@H](NC(=O)[C@H](CC(C)C)[C@H](NCc1ccc2ccccc2n1)C(=O)NO)C(C)(C)C | 1 nM | 5700 nM |  |
| CNC(=O)[C@@H](NC(=O)[C@H](CC(C)C)[C@H](NS(=O)(=O)/C=C/c1ccccc1)C(=O)NO)C(C)(C)C | 0.54 nM | 770 nM |  |
| CC1(C)SCCN(S(=O)(=O)c2ccc(Oc3ccncc3)cc2)[C@H]1C(=O)NO [PRINOMASTAT] | 5.5 nM | 16600 nM |  |
| CNC(=O)[C@@H](NC(=O)[C@H](CC(C)C)[C@H](Sc1ccc(OC)c(OC)c1)C(=O)NO)C(C)(C)C | 1.2 nM |  |  |
| CCS[C@H](C(=O)NO)[C@@H](CC(C)C)C(=O)N[C@H](C(=O)NC)C(C)(C)C | 1.5 nM | 5600 nM |  |
| CNC(=O)[C@@H](NC(=O)[C@H](CC(C)C)[C@H](NCc1ccc2ccccc2c1)C(=O)NO)C(C)(C)C | 0.57 nM | 6700 nM |  |
| CNC(=O)[C@@H](NC(=O)[C@H](CC(C)C)[C@H](NS(=O)(=O)c1cccs1)C(=O)NO)C(C)(C)C | 1.5 nM | 2800 nM |  |

| SMILES | IC50 [1] | IC50 [2] | IC50 (Interstitial collagenase) |
| --- | --- | --- | --- |
| CNC(=O)[C@@H](NC(=O)C(CC(C)C)C(OCc1cc2c(=O)[nH]c(C)nc2cc1Br)C(=O)NO)C(C)(C)C (single isomer, unassigned) | 0.33 nM | 4300 nM |  |
| CNC(=O)[C@@H](NC(=O)[C@H](CC(C)C)[C@H](OCc1ccc2ccccc2c1)C(=O)NO)C(C)(C)C | 0.6 nM | 7300 nM |  |
| CNC(=O)[C@@H](NC(=O)[C@H](CC(C)C)[C@H](NS(=O)(=O)c1cccc2ccccc12)C(=O)NO)C(C)(C)C | 1.2 nM | 3100 nM |  |
| CCCN([C@H](C(=O)NO)[C@@H](CC(C)C)C(=O)N[C@H](C(=O)NC)C(C)(C)C)S(=O)(=O)c1cccc2cccnc12 | 10 nM |  |  |
| CNC(=O)[C@@H](NC(=O)C(CC(C)C)C(NS(=O)(=O)c1ccc(Br)cc1)C(=O)NO)C(C)(C)C (single isomer, unassigned) | 1.4 nM | 4400 nM |  |
| CNC(=O)[C@@H](NC(=O)[C@H](CC(C)C)[C@H](NCCCSC)C(=O)NO)C(C)(C)C | 1.3 nM | 4600 nM |  |
| CNC(=O)[C@@H](NC(=O)[C@H](CC(C)C)[C@H](Sc1ccc(C#N)cc1)C(=O)NO)C(C)(C)C | 0.63 nM | 3300 nM |  |
| CNC(=O)[C@@H](NC(=O)[C@H](CC(C)C)[C@H](OCc1cc2ccccc2n(C)c1=O)C(=O)NO)C(C)(C)C | 0.44 nM | 2350 nM |  |
| CNC(=O)[C@@H](NC(=O)[C@H](CC(C)C)[C@H](OCc1cccc2cccnc12)C(=O)NO)C(C)(C)C | 0.4 nM | 8200 nM |  |
| CNC(=O)[C@@H](NC(=O)[C@H](CC(C)C)[C@H](OCc1cccc2nccnc12)C(=O)NO)C(C)(C)C | 1.1 nM | 7600 nM |  |
| CNC(=O)[C@@H](NC(=O)[C@H](CC(C)C)[C@H](OCc1ccc2oc(=O)ccc2c1)C(=O)NO)C(C)(C)C | 0.79 nM | 3600 nM |  |
| CNC(=O)[C@@H](NC(=O)[C@H](CC(C)C)[C@H](OCc1ccc2nc(C)nc(O)c2c1)C(=O)NO)C(C)(C)C | 0.43 nM | 2400 nM |  |
| CNC(=O)[C@@H](NC(=O)[C@H](CC(C)C)[C@H](NS(=O)(=O)c1ccc2c(c1)CCC(=O)N2C)C(=O)NO)C(C)(C)C | 2.9 nM | 3000 nM |  |
| CNC(=O)[C@@H](NC(=O)C(CC(C)C)C(NC(=O)c1ccccc1)C(=O)NO)C(C)(C)C (single isomer, unassigned) | 9 nM |  |  |
| CNC(=O)[C@@H](NC(=O)[C@H](CC(C)C)[C@H](Sc1ccccc1)C(=O)NO)C(C)(C)C | 188 nM |  |  |
| CNC(=O)[C@@H](NC(=O)[C@H](CC(C)C)[C@H](NS(C)(=O)=O)C(=O)NO)C(C)(C)C | 2.2 nM | 1600 nM |  |
| CNC(=O)[C@@H](NC(=O)[C@H](CC(C)C)[C@H](NS(=O)(=O)c1ccc2c(c1)CC(=O)N2)C(=O)NO)C(C)(C)C | 2.8 nM | 1500 nM |  |
| CNC(=O)[C@H](Cc1ccccc1)NC(=O)[C@H](CC(C)C)[C@H](CSc1ccccc1)C(=O)NO | 1.8 nM | 5300 nM |  |
